In the supplement of paper PMC11061612:

Experiments:
Assay in all cases: combination Emax (second highest fraction inhibited in the dose matrix, 72 h); higher = more inhibition; extreme values may be limits of the assay
[1] = tested on: 23132-87 (Gastric Carcinoma)
Method in brief: (§1)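 Cell lines grown in DMEM/F12 or RPMI with 10% FBS were plated in 1536-well plates and held 24 hours at 37°C, 5% CO2 before 72 hours of exposure to two-drug dose matrices, with DMSO typically at 0.2%. CellTiter-Glo 2.0 luminescence gave viability, which was converted to inhibition. Vehicle wells were set to 0 and blank wells to 1. Combination Emax is the second-highest inhibition in the matrix, and Bliss excess is the observed combination effect minus the expected EA + EB − EA·EB, where EA and EB are the single-agent effects.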

[2] = tested on: FADU (Head and Neck Carcinoma)
Method in brief: as §1

GB-1 (Glioblastoma) = tested on: GB-1 (Glioblastoma)
Method in brief: as §1

[3] = tested on: HCT-15 (Colorectal Carcinoma)
Method in brief: as §1

[4] = tested on: HEC-1 (Endometrial Carcinoma)
Method in brief: as §1

IST-MES1 (Mesothelioma) = tested on: IST-MES1 (Mesothelioma)
Method in brief: as §1

[5] = tested on: L-1236 (Hodgkin's Lymphoma)
Method in brief: as §1

[6] = tested on: LK-2 (Squamous Cell Lung Carcinoma)
Method in brief: as §1

LN-229 (Glioblastoma) = tested on: LN-229 (Glioblastoma)
Method in brief: as §1

[7] = tested on: LXF-289 (Lung Adenocarcinoma)
Method in brief: as §1

[8] = tested on: NCI-H23 (Lung Adenocarcinoma)
Method in brief: as §1

[9] = tested on: OAW-42 (Ovarian Carcinoma)
Method in brief: as §1

[10] = tested on: OPM-2 (Plasma Cell Myeloma)
Method in brief: as §1

[11] = tested on: RKN (Other Solid Carcinomas)
Method in brief: as §1

SF539 (Glioblastoma) = tested on: SF539 (Glioblastoma)
Method in brief: as §1

[12] = tested on: SHP-77 (Small Cell Lung Carcinoma)
Method in brief: as §1

[13] = tested on: SK-PN-DW (Other Solid Carcinomas)
Method in brief: as §1

[14] = tested on: SU-DHL-10 (B-Cell Non-Hodgkin's Lymphoma)
Method in brief: as §1

[15] = tested on: TE-8 (Esophageal Squamous Cell Carcinoma)
Method in brief: as §1

WM278 (Melanoma) = tested on: WM278 (Melanoma)
Method in brief: as §1

Structure (SMILES) | combination Emax [1] | combination Emax [2] | combination Emax (GB-1 (Glioblastoma)) | combination Emax [3] | combination Emax [4] | combination Emax (IST-MES1 (Mesothelioma)) | combination Emax [5] | combination Emax [6] | combination Emax (LN-229 (Glioblastoma)) | combination Emax [7] | combination Emax [8] | combination Emax [9] | combination Emax [10] | combination Emax [11] | combination Emax (SF539 (Glioblastoma)) | combination Emax [12] | combination Emax [13] | combination Emax [14] | combination Emax [15] | combination Emax (WM278 (Melanoma))
Cc1c2c(nn1C)CSCc1cc(n(C)n1)CSc1cc(c3ccccc3c1)OCCCc1c(C(=O)O)n(C)c3c-2c(Cl)ccc13 [AZD5991] + C=CCn1c(=O)c2cnc(Nc3ccc(N4CCN(C)CC4)cc3)nc2n1-c1cccc(C(C)(C)O)n1 [AZD1775] (first compound max 1 µM, partner max 1 µM) | 0.96 | 0.963 | 0.293 | 0.557 | 0.247 | 0.31 | 0.824 | 0.88 | 0.855 | 0.813 | 0.966 | 0.502 | 1 | 0.223 | 1 | 0.461 | 0.962 | 1 | 0.818 | 0.463
Cc1c2c(nn1C)CSCc1cc(n(C)n1)CSc1cc(c3ccccc3c1)OCCCc1c(C(=O)O)n(C)c3c-2c(Cl)ccc13 [AZD5991] + CN(C)CCCOc1ccc(-c2ccc3ncc4c(c3c2)n(C2CCOCC2)c(=O)n4C)cn1 [AZD0156] (first compound max 1 µM, 7x7, partner max 1 µM) | 0.934 | 0.972 | 0.186 | 0.197 | 0.195 | 0.191 | 0.331 | 0.183 | 0.483 | 0.427 | 0.913 | 0.556 | 1 | 0.173 | 0.302 | 0.284 | 0.835 | 1 | 0.379 | 0.248
NC1(C(=O)N[C@@H](CCO)c2ccc(Cl)cc2)CCN(c2ncnc3[nH]ccc23)CC1 [Capivasertib] + CCN(CCO)CCCOc1ccc2c(Nc3cc(CC(=O)Nc4cccc(F)c4)[nH]n3)ncnc2c1 [AZD2811] (first compound max 10 µM, 7x7, partner max 1 µM) | 0.224 | 0.36 | 0.342 | 0.394 | 0.212 | 0.322 | 0.792 | 0.925 | 0.211 | 0.679 | 0.387 | 0.48 | 0.981 | 0.254 | 0.723 | 0.271 | 0.83 | 1 | 0.6 | 0.431
CN(CCO)CC[C@H](CSc1ccccc1)Nc1ccc(S(=O)(=O)NC(=O)c2ccc(N3CCC([C@@H](O)c4ccccc4-c4ccc(Cl)cc4)CC3)cc2)cc1S(=O)(=O)C(F)(F)F [AZD4320] + Cn1cnc2c(F)c(Nc3ccc(Br)cc3Cl)c(C(=O)NOCCO)cc21 [Selumetinib] (first compound max 1 µM, 7x7, partner max 3 µM) | 0.615 | 0.832 | 0.519 | 0.284 | 0.366 | 0.257 | 0.999 | 0.699 | 0.397 | 0.314 | 0.435 | 0.436 | 0.556 | 0.326 | 0.346 | 0.613 | 0.684 | 0.617 | 0.502 | 0.918
C[C@@H](c1ccc2nccn2c1)n1nnc2ncc(-c3cnn(C)c3)nc21 [Savolitinib] + Cc1c2c(nn1C)CSCc1cc(n(C)n1)CSc1cc(c3ccccc3c1)OCCCc1c(C(=O)O)n(C)c3c-2c(Cl)ccc13 [AZD5991] (first compound max 1 µM, 7x7, partner max 1 µM) | 0.179 | 0.546 | 0.117 | 0.152 | 0.107 | 0.189 | 0.668 | 0.202 | 0.221 | 0.306 | 0.915 | 0.21 | 1 | 0.117 | 0.21 | 0.34 | 0.766 | 1 | 0.323 | 0.15
CN(CCO)CC[C@H](CSc1ccccc1)Nc1ccc(S(=O)(=O)NC(=O)c2ccc(N3CCC([C@@H](O)c4ccccc4-c4ccc(Cl)cc4)CC3)cc2)cc1S(=O)(=O)C(F)(F)F [AZD4320] + Cc1cc2ncnn2cc1Nc1ncc2c(n1)n(C1CCOCC1)c(=O)n2C [AZD7648] (first compound max 1 µM, 7x7, partner max 10 µM) | 0.2 | 0.12 | 0.17 | 0.135 | 0.337 | 0.113 | 0.958 | 0.746 | 0.0793 | 0.216 | 0.156 | 0.348 | 0.71 | 0.135 | 0.214 | 0.491 | 0.413 | 0.474 | 0.193 | 0.555
